In patent publication US20050142574A1, “Mutants of core 2 B-1, 6-N-acetylglycosaminyltransferase” (Seikagaku Corporation and Glycodesign Holdings Ltd., priority 2003, published 2005):
Substitutions are numbered along the chain they refer to. Read-outs that look alike come from different tables or passages of the source.

How the values were obtained:
Format in all cases: biochemical
[1] = target: T1, wild-type mouse Core 2 GlcNAcT1 (Mus musculus, UniProt Q09324, H362D/H420R/R88W/S191T/T260A); experiment: Activity of stored recombinant enzyme after addition of reducing agents; conditions: following storage of expressed and purified recombinant enzyme
T1 construct: made in house; host or cells: COS-7 or CHO-S cells, secreted into the culture supernatant, purified on anti-FLAG M1 beads
T1 sequence (Q09324 34-428 R88W/S191T/T260A/H362D/H420R): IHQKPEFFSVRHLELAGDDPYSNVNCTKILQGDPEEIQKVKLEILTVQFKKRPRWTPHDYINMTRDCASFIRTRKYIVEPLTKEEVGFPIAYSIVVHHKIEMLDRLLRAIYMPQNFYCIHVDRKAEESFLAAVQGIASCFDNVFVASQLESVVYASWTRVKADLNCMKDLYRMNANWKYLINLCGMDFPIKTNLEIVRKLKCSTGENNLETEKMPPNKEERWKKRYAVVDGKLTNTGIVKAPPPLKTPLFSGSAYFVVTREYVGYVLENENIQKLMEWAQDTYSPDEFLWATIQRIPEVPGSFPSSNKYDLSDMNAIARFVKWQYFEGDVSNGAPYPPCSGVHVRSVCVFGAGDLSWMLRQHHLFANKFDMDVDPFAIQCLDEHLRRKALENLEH
Source text: (§1) Iodoacetamide, 5,5′-dithiobis(2-nitrobenzoic acid) (DTNB), and N-ethylmaleimide causes inhibition of wild-type human and mouse Core 2 GlcNAcT1s. […] The blocking of this residue by oxidation, alkylation, or heavy metal binding causes inhibition of the enzyme.

[2] = target: T2, wild-type human Core 2 GlcNAcT1 (Homo sapiens, UniProt Q02742, I152V); experiment: as above; conditions: following storage of expressed and purified recombinant enzyme
T2 construct: S-tag (N, cleaved yes); made in house
T2 sequence (Q02742 37-428 I152V): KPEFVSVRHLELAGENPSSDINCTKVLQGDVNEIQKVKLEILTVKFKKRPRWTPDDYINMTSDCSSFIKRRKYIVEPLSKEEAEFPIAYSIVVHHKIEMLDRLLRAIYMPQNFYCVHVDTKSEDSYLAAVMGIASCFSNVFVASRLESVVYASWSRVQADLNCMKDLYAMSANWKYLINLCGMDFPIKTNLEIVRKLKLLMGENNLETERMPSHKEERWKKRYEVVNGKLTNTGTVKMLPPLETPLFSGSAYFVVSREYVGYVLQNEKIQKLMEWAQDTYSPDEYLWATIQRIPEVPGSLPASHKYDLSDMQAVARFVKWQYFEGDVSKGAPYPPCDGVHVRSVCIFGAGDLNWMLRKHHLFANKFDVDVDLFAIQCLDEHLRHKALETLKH
Source text: as §1

[3] = target: T3, C217S human Core 2 GlcNAcT1 (Homo sapiens, UniProt Q02742, C217S); experiment: Effects of sulfhydryl reagents and heavy metals on enzyme activity (% activity); conditions: relatively high concentrations (FIG. 2), 37° C., 2.0 hours
T3 construct: S-tag (N, cleaved yes); made in house
T3 sequence (Q02742 37-428 C217S): T2 sequence (Q02742 37-428 I152V) with V116I, C181S
Experimental: (§2) Wild-type and C217S, human and mouse, Core 2 GlcNAcT1s were dissolved in an aqueous solution containing 30 mM 2-morpholinoethanesulfonic acid (MES) buffer (pH 6.7) and 1.0 mg/ml bovine serum albumin (BSA). Iodoacetamide (IAA), 5,5′-dithiobis(2-nitrobenzoic acid) (DTNB), N-ethylmaleimide (NEM), HgCl2 and ZnSO4 were added at the concentrations listed on FIGS. 1 and 2. 1.0 mM UDP-GlcNAc, 0.50 mM Gal(β1-3)GalNAcα-pnp, (3H)UDP-GlcNAc (0.50 μCi) and 30 mM MES buffer (pH 6.7) were added as well. The solutions were incubated at 37° C. for 2.0 hours. The (^3H)UDP-GlcNAc and (^3H)GlcNAc(β1-6)Gal(β1-3)GalNAcα-pnp were separated by solid-phase extraction and the DPM of (^3H)Gal(β1-3) GlcNAc(β1-6)GalNAcα-pnp were counted by liquid scintillation. A solution containing all components with exception of enzymes was prepared to measure background levels. The % activity was calculated as follows: (DPMinhibitor−DPMbackground)/(DPMcontrol−DPMbackground)*100. All assays were performed in duplicate. The results are plotted in FIGS. 1 and 2.

[4] = target: T4, wild-type mouse Core 2 GlcNAcT1 (Mus musculus, UniProt Q09324); experiment: as above; conditions: 37° C., 2.0 hours, concentrations listed on FIG. 1
T4 construct: made in house; host or cells: COS-7 or CHO-S cells, secreted into the culture supernatant, purified on anti-FLAG M1 beads
T4 sequence (Q09324 34-428 R88W/S191T/T260A/H362D/H420R): T1 sequence (Q09324 34-428 R88W/S191T/T260A/H362D/H420R)
Experimental: as §2

[5] = target: T5, C217S mouse Core 2 GlcNAcT1 (Mus musculus, UniProt Q09324, C217S); experiment: as above; conditions: relatively high concentrations (FIG. 1), 37° C., 2.0 hours
T5 construct: made in house; host or cells: CHO-S or COS-7 cells, secreted, purified on anti-FLAG M1 beads
T5 sequence (Q09324 with tags, fused parts or gaps R88W/S191T/C217S/T260A/H362D/H420R): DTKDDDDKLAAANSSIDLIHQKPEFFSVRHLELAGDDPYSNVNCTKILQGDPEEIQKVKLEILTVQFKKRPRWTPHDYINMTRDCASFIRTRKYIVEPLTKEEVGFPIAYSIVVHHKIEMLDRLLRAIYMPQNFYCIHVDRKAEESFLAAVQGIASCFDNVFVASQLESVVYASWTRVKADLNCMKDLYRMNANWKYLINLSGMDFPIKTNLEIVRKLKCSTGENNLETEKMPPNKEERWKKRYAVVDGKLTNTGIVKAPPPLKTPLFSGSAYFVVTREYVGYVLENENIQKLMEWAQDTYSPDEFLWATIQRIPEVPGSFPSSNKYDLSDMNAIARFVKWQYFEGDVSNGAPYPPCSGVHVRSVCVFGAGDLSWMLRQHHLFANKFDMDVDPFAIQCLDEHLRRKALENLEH
Experimental: as §2

[6] = target: T2, wild-type human Core 2 GlcNAcT1; experiment: as above; conditions: 37° C., 2.0 hours, concentrations listed on FIG. 2
Experimental: as §2

[7] = target: T3, C217S human Core 2 GlcNAcT1; experiment: Kinetic characterization assays (standard enzyme assay with titrated substrate or product); conditions: for inhibitory potential of the reaction product, C217S compared with wild-type: human enzymes, titrated product in standard assay; for Km: C217S human enzyme
Experimental: (§3) Standard enzyme assays for wild-type and mutant (217Cys→Ser) Core 2 GlcNAcT1 were carried out in a 30 μl solution containing 30 mM 2-morpholinoethanesulfonic acid (MES) buffer (pH 6.7), 1.0 mM UDP-GlcNAc (donor substrate), 1.0 μCi UDP-6-[3H]GlcNAc, 0.50 mM (Galβ1-3)GalNAcα-pNp (acceptor substrate or AS), 1 mg/ml BSA, and 15-25 μU (1 unit=1 micromole/min) per assay of recombinant Core 2 GlcNAcT1 protein. The reaction was incubated for 2.0 hours at 37° C. and stopped by the addition of 460 μl of water. Reactions were frozen at −20° C. if they were not processed immediately. The reaction product Galβ1,3 [^3H]GlcNAc(β1,6)GalNAcα-pNp was separated from unreacted UDP-6[^3H]GlcNAc by solid phase extraction using Waters Sep-Pak columns. Samples were eluted from the column with ethanol, added to 10 ml of scintillation fluid and radioactivity (DPM) was determined.
(§4) Km values were determined by running the standard assay conditions with the exception of the titration of the donor substrate UDP-GlcNAc concentration (for Km,DS) or AS concentration (for Km,AS). The IC50 values for the products UDP and GlcNAc(β1-6)Gal(β1-3)GalNAcα-pNp were determined by running the standard assay conditions and adding titrated product. The mechanism was determined by titrating both donor and acceptor substrates at the same time.

[8] = target: T5, C217S mouse Core 2 GlcNAcT1; experiment: as above; conditions: for inhibitory potential of the reaction product, C217S compared with wild-type: mouse enzymes, titrated product in standard assay
Experimental: as §3, §4

[9] = target: T1, wild-type mouse Core 2 GlcNAcT1; experiment: as above
Experimental: as §3, §4

[10] = target: T2, wild-type human Core 2 GlcNAcT1; experiment: as above
Experimental: as §3, §4

[11] = target: T4, wild-type mouse Core 2 GlcNAcT1; experiment: as above; conditions: Ordered Bi Bi mechanism, read-out: KD for the donor substrate
Experimental: as §3, §4

[12] = acceptor substrate titrated, read-out: Km value for the acceptor substrate
[13] = donor substrate titrated, read-out: Km value for the donor substrate

| Compound | inhibition of enzyme activity [3] | inhibition of enzyme activity [4] | inhibition of enzyme activity [5] | inhibition of enzyme activity [6] | other results |
| --- | --- | --- | --- | --- | --- |
| O[C@@H](CS)[C@@H](O)CS (racemic) [DTT, 1,4-dithiothreitol] | – | – | – | – | change of enzyme activity after addition of reducing agent [1]: increase; change of enzyme activity after addition of reducing agent [2]: increase |
| O=C(O)c1cc(SSc2ccc([N+](=O)[O-])c(C(=O)O)c2)ccc1[N+](=O)[O-] [DTNB, 5,5′-dithiobis(2-nitrobenzoic acid)] | not inhibited | inhibition | not inhibited | inhibition | – |
| CC(=O)N[C@H]1[C@H](OC[C@H]2O[C@H](Oc3ccc([N+](=O)[O-])cc3)[C@H](NC(C)=O)[C@@H](O[C@@H]3O[C@H](CO)[C@H](O)[C@H](O)[C@H]3O)[C@H]2O)O[C@H](CO)[C@@H](O)[C@@H]1O [Gal(β1-3) GlcNAc(β1-6)GalNAcα-pNp] | – | – | – | – | inhibitory potential of the reaction product, C217S compared with wild-type [7]: the same for both enzymes; inhibitory potential of the reaction product, C217S compared with wild-type [8]: the same for both enzymes |
| CC(=O)N[C@H]1[C@@H](Oc2ccc([N+](=O)[O-])cc2)O[C@H](CO)[C@H](O)[C@@H]1O[C@@H]1O[C@H](CO)[C@H](O)[C@H](O)[C@H]1O [Gal(β1-3)GalNAcα-pNp] | – | – | – | – | Km [7, 12]: 320 µM; Km [9, 12]: 150 µM; Km ([8]; C217S mouse enzyme, acceptor substrate titrated, read-out: Km value for the acceptor substrate): 130 µM; Km [10, 12]: 340 µM |
| [Cl][Hg][Cl] [Hg^2+, HgCl2] | insensitive | inhibit | did not affect | inhibit | – |
| NC(=O)CI [Iodoacetamide] | not inhibited | inhibition | not inhibited | inhibition | – |
| CCN1C(=O)C=CC1=O [N-ethylmaleimide] | not inhibited | inhibition | not inhibited | inhibition | – |
| O=c1ccn([C@@H]2O[C@H](COP(=O)(O)OP(=O)(O)O)[C@@H](O)[C@H]2O)c(=O)[nH]1 [UDP] | – | – | – | – | inhibitory potential of the reaction product, C217S compared with wild-type [7]: the same for both enzymes; inhibitory potential of the reaction product, C217S compared with wild-type [8]: the same for both enzymes |
| O=S(=O)([O-])[O-].[Zn+2] [Zn^2+, ZnSO4] | insensitive to Hg^2+ only | inhibit | did not affect | inhibit | – |
| uridine diphospho-N-acetylglucosamine [UDP-GlcNAc] | – | – | – | – | Km [7, 13]: 1100 µM; Km [9, 13]: 1500 µM; Kd [11]: 110 µM; Kd ([8]; C217S mouse enzyme, Ordered Bi Bi mechanism, read-out: KD for the donor substrate): 110 µM; Km ([8]; C217S mouse enzyme, donor substrate titrated, read-out: Km value for the donor substrate): 1500 µM; Km [10, 13]: 1200 µM |
